Data from patent publication US8513229B2, “4-Azetidinyl-1-phenyl-cyclohexane antagonists of CCR2” (Janssen Pharmaceutica NV, priority 2009, dated 2013).

Biological target: T1, CCR2 (Homo sapiens, UniProt P41597)
T1 construct: host or cells: THP-1 human monocytic cells
T1 sequence (P41597 1-360 isoform P41597-2): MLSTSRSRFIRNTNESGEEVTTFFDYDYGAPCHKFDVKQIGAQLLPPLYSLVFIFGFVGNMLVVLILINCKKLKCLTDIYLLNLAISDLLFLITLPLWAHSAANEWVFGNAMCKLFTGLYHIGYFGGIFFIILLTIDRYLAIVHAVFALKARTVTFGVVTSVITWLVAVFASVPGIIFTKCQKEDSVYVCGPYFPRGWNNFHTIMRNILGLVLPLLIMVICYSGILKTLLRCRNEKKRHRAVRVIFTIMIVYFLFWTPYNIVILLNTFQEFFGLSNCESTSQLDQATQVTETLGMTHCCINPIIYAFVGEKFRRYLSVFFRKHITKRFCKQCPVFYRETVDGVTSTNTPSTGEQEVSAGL
Assay: MCP-1 Receptor Binding Assay in THP-1 Cells
Details: 0.5 nM 125I labeled MCP-1, 2 hours at 30° C., read-out: Inhibition of MCP-1 Binding IC50 CCR2 Binding
Method: MCP-1 Receptor Binding Assay in THP-1 Cells
Human monocytic cell line THP-1 cells were obtained from American Type Culture Collection (Manassas, Va., USA). […] The cell density was maintained […].
1 μM cold MCP-1 was used for nonspecific binding.

| IC50 [µM] | Molecule |
| --- | --- |
| 0.021 | COc1ccc(C2(O)CCC(N3CC(NC(=O)CNC(=O)c4cccc(C(F)(F)F)c4)C3)CC2)cc1 (single isomer, unassigned) [Example 36a, N-({1-[4-Hydroxy-4-(4-methoxy-phenyl)-cyclohexyl]-azetidin-3-ylcarbamoyl}-methyl)-3-trifluoromethyl-benzamide] |
| 0.24 | NC1(c2ccccc2)CCC(N2CC(NC(=O)CNC(=O)c3cccc(C(F)(F)F)c3)C2)CC1 (single isomer, unassigned) [Example 84a, N-{[1-(4-Amino-4-phenyl-cyclohexyl)-azetidin-3-ylcarbamoyl]-methyl}-3-trifluoromethyl-benzamide] |
| 0.2 | O=C(CNC(=O)c1ccc(F)c(C(F)(F)F)c1)NC1CN(C2CCC(c3ccccc3)CC2)C1 (single isomer, unassigned) [Example 71a, 4-Fluoro-N-{[1-(4-phenyl-cyclohexyl)-azetidin-3-ylcarbamoyl]-methyl}-3-trifluoromethyl-benzamide] |
| 0.025 | O=C(CNC(=O)c1cccc(C(F)(F)F)c1)NC1CN(C2CCC(O)(c3ccc4c(c3)OCC4)CC2)C1 (single isomer, unassigned) [Example 33a, N-({1-[4-(2,3-Dihydro-benzofuran-6-yl)-4-hydroxy-cyclohexyl]-azetidin-3-ylcarbamoyl}-methyl)-3-trifluoromethyl-benzamide] |
| 0.033 | COc1ccc(C2(O)CCC(N3CC(NC(=O)CNC(=O)c4cccc(C(F)(F)F)c4)C3)CC2)cc1F (single isomer, unassigned) [Example 57a, N-({1-[4-(3-Fluoro-4-methoxy-phenyl)-4-hydroxy-cyclohexyl]-azetidin-3-ylcarbamoyl}-methyl)-3-trifluoromethyl-benzamide] |
| 0.228 | C#Cc1cccc(C2(O)CCC(N3CC(NC(=O)CNC(=O)c4cccc(C(F)(F)F)c4)C3)CC2)c1 (single isomer, unassigned) [Example 51a, N-({1-[4-(3-Ethynyl-phenyl)-4-hydroxy-cyclohexyl]-azetidin-3-ylcarbamoyl}-methyl)-3-trifluoromethyl-benzamide] |
| 0.052 | Nc1cccc(C2(O)CCC(N3CC(NC(=O)CNC(=O)c4cccc(C(F)(F)F)c4)C3)CC2)c1 (single isomer, unassigned) [Example 58a, N-({1-[4-(3-Amino-phenyl)-4-hydroxy-cyclohexyl]-azetidin-3-ylcarbamoyl}-methyl)-3-trifluoromethyl-benzamide] |
| 0.34 | CCOC(=O)Cc1ccc(C2CCC(N3CC(NC(=O)CNC(=O)c4cccc(C(F)(F)F)c4)C3)CC2)cc1 (single isomer, unassigned) [Example 24a, [4-(4-{3-[2-(3-Trifluoromethyl-benzoylamino)-acetylamino]-azetidin-1-yl}-cyclohexyl)-phenyl]-acetic acid ethyl ester] |
| 0.31 | O=C(CNC(=O)c1cccc(C(F)(F)F)c1)NC1CN(C2CCC(O)(c3ccc4nc[nH]c4c3)CC2)C1 (single isomer, unassigned) [Example 34a, N-({1-[4-(3H-Benzoimidazol-5-yl)-4-hydroxy-cyclohexyl]-azetidin-3-ylcarbamoyl}-methyl)-3-trifluoromethyl-benzamide] |

More lines, now with the values behind:

| Molecule | IC50 [µM] |
| --- | --- |
| Cn1c(=O)n(C)c2cc(C3(O)CCC(N4CC(NC(=O)CNC(=O)c5cccc(C(F)(F)F)c5)C4)CC3)ccc21 (centres unmarked) [Example 62, N-({1-[4-(1,3-Dimethyl-2-oxo-2,3-dihydro-1H-benzoimidazol-5-yl)-4-hydroxy-cyclohexyl]-azetidin-3-ylcarbamoyl}-methyl)-3-trifluoromethyl-benzamide] | 0.082 |
| O=C(CNC(=O)c1cccc(C(F)(F)F)c1)NC1CN(C2CCC(c3ccc(-c4nn[nH]n4)cc3)CC2)C1 (centres unmarked) [Example 28, N-[(1-{4-[4-(2H-Tetrazol-5-yl)-phenyl]-cyclohexyl}-azetidin-3-ylcarbamoyl)-methyl]-3-trifluoromethyl-benzamide] | 0.2 |
| O=C(CNC(=O)c1cccc(C(F)(F)F)c1)NC1CN(C2CCC(O)(c3ccc(C(=O)O)cc3)CC2)C1 (centres unmarked) [Example 45, 4-(1-Hydroxy-4-{3-[2-(3-trifluoromethyl-benzoylamino)-acetylamino]-azetidin-1-yl}-cyclohexyl)-benzoic acid] | 6.9 |
| Cn1cnc2ccc(C3(O)CCC(N4CC(NC(=O)CNC(=O)c5cccc(C(F)(F)F)c5)C4)CC3)cc21 (centres unmarked) [Example 64, N-({1-[4-Hydroxy-4-(3-methyl-3H-benzoimidazol-5-yl)-cyclohexyl]-azetidin-3-ylcarbamoyl}-methyl)-3-trifluoromethyl-benzamide] | 0.11 |
| N#Cc1ccc(C2CCC(N3CC(NC(=O)CNC(=O)c4cccc(C(F)(F)F)c4)C3)CC2)cc1 (centres unmarked) [Example 27, N-({1-[4-(4-Cyano-phenyl)-cyclohexyl]-azetidin-3-ylcarbamoyl}-methyl)-3-trifluoromethyl-benzamide] | 0.086 |
| O=C(CNC(=O)c1cccc(C(F)(F)F)c1)NC1CN(C2CCC(c3ccc4c(c3)OCC4)CC2)C1 (single isomer, unassigned) [Example 3a, N-({1-[4-(2,3-Dihydro-benzofuran-6-yl)-cyclohexyl]-azetidin-3-ylcarbamoyl}-methyl)-3-trifluoromethylbenzamide] | 0.045 |
| O=C(CNC(=O)c1cccc(C(F)(F)F)c1)NC1CN(C2CCC(c3ccc4oc(=O)[nH]c4c3)CC2)C1 (single isomer, unassigned) [Example 5a, N-({1-[4-(2-oxo-2,3-dihydro-benzooxazol-5-yl)-cyclohexyl]-azetidin-3-ylcarbamoyl}-methyl)-3-trifluoromethyl-benzamide] | 0.009 |
| CC(C)(C)NC(=O)Nc1cc(C(=O)NCC(=O)NC2CN(C3CCC(c4ccccc4)CC3)C2)cc(C(F)(F)F)c1 (centres unmarked) [Example 82, 3-(3-tert-Butyl-ureido)-N-{[1-(4-phenyl-cyclohexyl)-azetidin-3-ylcarbamoyl]-methyl}-5-trifluoromethyl-benzamide] | 0.05 |
| NC(=O)Cc1ccc(C2CCC(N3CC(NC(=O)CNC(=O)c4cccc(C(F)(F)F)c4)C3)CC2)cc1 (centres unmarked) [Example 26, N-({1-[4-(4-Carbamoylmethyl-phenyl)-cyclohexyl]-azetidin-3-ylcarbamoyl}-methyl)-3-trifluoromethyl-benzamide] | 0.07 |
| Nc1ccc(C2CCC(N3CC(NC(=O)CNC(=O)c4cccc(C(F)(F)F)c4)C3)CC2)cc1 (centres unmarked) [Example 15, N-({1-[4-(4-Amino-phenyl)-cyclohexyl]-azetidin-3-ylcarbamoyl}-methyl)-3-trifluoromethyl-benzamide] | 0.337 |
| NC(=O)Nc1ccc(C2CCC(N3CC(NC(=O)CNC(=O)c4cccc(C(F)(F)F)c4)C3)CC2)cc1 (centres unmarked) [Example 19, 3-Trifluoromethyl-N-({1-[4-(4-ureido-phenyl)-cyclohexyl]-azetidin-3-ylcarbamoyl}-methyl)-benzamide] | 0.13 |
| O=C(CNC(=O)c1cccc(C(F)(F)F)c1)NC1CN(C2CCC(c3ccc4sc(=O)[nH]c4c3)CC2)C1 (single isomer, unassigned) [Example 6a, N-({1-[4-(2-Oxo-2,3-dihydro-benzothiazol-5-yl)-cyclohexyl]-azetidin-3-ylcarbamoyl}-methyl)-3-trifluoromethyl-benzamide] | 0.2 |
| O=C(CNC(=O)c1cccc(C(F)(F)F)c1)NC1CN(C2CCC(O)(c3ccc(Cl)cc3)CC2)C1 (centres unmarked) [Example 53, N-({1-[4-(4-Chloro-phenyl)-4-hydroxy-cyclohexyl]-azetidin-3-ylcarbamoyl}-methyl)-3-trifluoromethyl-benzamide] | 0.24 |
| COc1ccc(C2CCC(N3CC(NC(=O)CNC(=O)c4cccc(C(F)(F)F)c4)C3)CC2)cc1 (single isomer, unassigned) [Example 7a, N-({1-[4-(4-Methoxy-phenyl)-cyclohexyl]-azetidin-3-ylcarbamoyl}-methyl)-3-trifluoromethyl-benzamide] | 0.05 |
| O=C(CNC(=O)c1cc(C(F)(F)F)ccc1N1CCCC1)NC1CN(C2CCC(c3ccccc3)CC2)C1 (centres unmarked) [Example 70, N-{[1-(4-Phenyl-cyclohexyl)-azetidin-3-ylcarbamoyl]-methyl}-2-pyrrolidin-1-yl-5-trifluoromethyl-benzamide] | 1.7 |
| N-({1-[4-(4,4-bis-Methanesulfonylamino-phenyl)-cyclohexyl]-azetidin-3-ylcarbamoyl}-methyl)-3-trifluoromethyl-benzamide [Example 17] | 0.027 |
| COc1ccc(C(=O)NCC(=O)NC2CN(C3CCC(c4ccccc4)CC3)C2)cc1C(F)(F)F (centres unmarked) [Example 67, 4-Methoxy-N-{[1-(4-phenyl-cyclohexyl)-azetidin-3-ylcarbamoyl]-methyl}-3-trifluoromethyl-benzamide] | 0.6 |
| O=C(CNC(=O)c1cccc(C(F)(F)F)c1)NC1CN(C2CCC(O)(c3cccc(-c4nnn[nH]4)c3)CC2)C1 (centres unmarked) [Example 49, N-[(1-{4-Hydroxy-4-[3-(1H-tetrazol-5-yl)-phenyl]-cyclohexyl}-azetidin-3-ylcarbamoyl)-methyl]-3-trifluoromethyl-benzamide] | 0.81 |
| O=C(CNC(=O)c1cccc(C(F)(F)F)c1)NC1CN(C2CCC(c3cccc(C(=O)O)c3)CC2)C1 (centres unmarked) [Example 12, 3-(4-{3-[2-(3-Trifluoromethyl-benzoylamino)-acetylamino]-azetidin-1-yl}-cyclohexyl)-benzoic acid] | 0.22 |
| O=C(CNC(=O)c1cccc(C(F)(F)F)c1)NC1CN(C2CCC(c3ccc(C(=O)O)cc3)CC2)C1 (centres unmarked) [Example 10, 4-(4-{3-[2-(3-Trifluoromethyl-benzoylamino)-acetylamino]-azetidin-1-yl}-cyclohexyl)-benzoic acid] | 0.07 |
